Data: article PMC8267566, “Human GPR17 missense variants identified in metabolic disease patients have distinct downstream signaling profiles” (The Journal of Biological Chemistry, 2021)

Assays:
Assay in all cases: GloSensor cAMP assay, inhibition of forskolin-stimulated cAMP
Format in all cases: cell-based
hGPR17L-A131T = molecular target: T1, hGPR17L-A131T (Homo sapiens, UniProt Q13304, A131T)
T1 construct: expressed in transfected cells; host or cells: HEK293 (ATCC CRL-1573), transient transfection
Method: (§1) HEK293 cells were seeded at 20,000 cells/well into white, opaque 96-well plates. The next day, cells were transiently cotransfected with pGloSensor-cAMP-22F and pcDNA3-HA-hGPR17L or pcDNA3-HA-hGPR17L-variants using lipofectamine 3000. Twenty-four hours posttransfection, growth medium and transfection mix were aspirated and replaced with 100 μl/well equilibration medium (2% Promega GloSensor cAMP reagent [E1291; Promega Corporation] in CO2-independent medium) and incubated at room temperature for 2 h. Baseline luminescence was read on a Molecular Devices SpectraMax iD5 plate reader (Molecular Devices) at ambient room temperature for 8 min. Subsequently, 10 μl/well MDL29,951 diluted in assay buffer (HBSS, 20 mM HEPES, pH 7.2) was added and luminescence was read for 10 min. Finally, 10 μl/well forskolin (1099; Tocris Bioscience) diluted in assay buffer was added and luminescence was measured for 20–30 min. The average luminescence value for the 14–20 min time points for each well was normalized to their average baseline luminescence value and expressed as a percentage of the forskolin-stimulated response within each transfection condition.

hGPR17L-D105N = molecular target: T2, hGPR17L-D105N (Homo sapiens, UniProt Q13304, D105N)
T2 construct: expressed in transfected cells; host or cells: HEK293 (ATCC CRL-1573), transient transfection
Method: as §1

hGPR17L-F43L = molecular target: T3, hGPR17L-F43L (Homo sapiens, UniProt Q13304, F43L)
T3 construct: expressed in transfected cells; host or cells: HEK293 (ATCC CRL-1573), transient transfection
Method: as §1

hGPR17L-G136S = molecular target: T4, hGPR17L-G136S (Homo sapiens, UniProt Q13304, G136S)
T4 construct: expressed in transfected cells; host or cells: HEK293 (ATCC CRL-1573), transient transfection
Method: as §1

hGPR17L-G354V = molecular target: T5, hGPR17L-G354V (Homo sapiens, UniProt Q13304, G354V)
T5 construct: expressed in transfected cells; host or cells: HEK293 (ATCC CRL-1573)
Method: as §1

hGPR17L-R248Q = molecular target: T6, hGPR17L-R248Q (Homo sapiens, UniProt Q13304, R248Q)
T6 construct: expressed in transfected cells; host or cells: HEK293 (ATCC CRL-1573), transient transfection
Method: as §1

[1] = HEK293, inhibition of 3 μM forskolin-stimulated cAMP
[2] = read-out: cAMP IC50, HEK293, inhibition of 3 μM forskolin-stimulated cAMP

T5 sequence (Q13304 whole entry G354V): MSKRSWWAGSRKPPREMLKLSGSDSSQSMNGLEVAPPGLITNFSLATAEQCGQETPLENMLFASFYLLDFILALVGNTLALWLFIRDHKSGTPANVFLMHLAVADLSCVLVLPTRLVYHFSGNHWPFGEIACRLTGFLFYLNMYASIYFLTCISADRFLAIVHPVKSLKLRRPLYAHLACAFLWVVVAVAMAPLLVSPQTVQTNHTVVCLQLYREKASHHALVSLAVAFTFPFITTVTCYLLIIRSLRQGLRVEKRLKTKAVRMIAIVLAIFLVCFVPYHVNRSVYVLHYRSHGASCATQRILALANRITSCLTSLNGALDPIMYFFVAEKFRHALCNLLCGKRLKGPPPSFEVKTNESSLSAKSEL
T2 sequence (Q13304 whole entry D105N): as the sequence (Q13304 whole entry G354V) above, with D105N, V354G counted along it
T6 sequence (Q13304 whole entry R248Q): as the sequence (Q13304 whole entry G354V) above, with R248Q, V354G counted along it
T1 sequence (Q13304 whole entry A131T): as the sequence (Q13304 whole entry G354V) above, with A131T, V354G counted along it
T4 sequence (Q13304 whole entry G136S): as the sequence (Q13304 whole entry G354V) above, with G136S, V354G counted along it
T3 sequence (Q13304 whole entry F43L): as the sequence (Q13304 whole entry G354V) above, with F43L, V354G counted along it

For `O=C(O)CCc1c(C(=O)O)[nH]c2cc(Cl)cc(Cl)c12` [MDL29,951], the “cAMP Efficacy (% inhibition)” value (hGPR17L-A131T; HEK293, 3 μM forskolin) was 44 ± 4.5 % inhibition, the “cAMP 10 μM MDL +3 μM FSK (% of FSK)” value (hGPR17L-A131T; HEK293, 10 μM MDL29,951) was 77 ± 3.5 % of FSK and the “cAMP 100 μM MDL +3 μM FSK (% of FSK)” value (hGPR17L-A131T; HEK293, 100 μM MDL29,951) was 109 ± 5.3 % of FSK. The “cAMP pIC50 ± SEM” value (hGPR17L-A131T; [1]) was 8.31 ± 0.13, the IC50 (hGPR17L-A131T; [2]) was 4.9 nM and the “fold less potent for inhibition of forskolin-stimulated cAMP relative to hGPR17L-WT” value (hGPR17L-D105N) was “sixfold less potent”. For the same compound, the “cAMP Efficacy (% inhibition)” value (hGPR17L-D105N; HEK293, 3 μM forskolin) was 48 ± 4.7 % inhibition, the “cAMP 10 μM MDL +3 μM FSK (% of FSK)” value (hGPR17L-D105N; HEK293, 10 μM MDL29,951) was 49 ± 7.3 % of FSK and the “cAMP 100 μM MDL +3 μM FSK (% of FSK)” value (hGPR17L-D105N; HEK293, 100 μM MDL29,951) was 56 ± 10 % of FSK. The “cAMP pIC50 ± SEM” value (hGPR17L-D105N; [1]) was 7.75 ± 0.25, the IC50 (hGPR17L-D105N; [2]) was 18 nM and the “cAMP Efficacy (% inhibition)” value (hGPR17L-F43L; HEK293, 3 μM forskolin) was 44 ± 2.7 % inhibition. The “cAMP 10 μM MDL +3 μM FSK (% of FSK)” value (hGPR17L-F43L; HEK293, 10 μM MDL29,951) was 107 ± 24 % of FSK, the “cAMP 100 μM MDL +3 μM FSK (% of FSK)” value (hGPR17L-F43L; HEK293, 100 μM MDL29,951) was 145 ± 30 % of FSK and the “cAMP pIC50 ± SEM” value (hGPR17L-F43L; [1]) was 8.81 ± 0.37. The IC50 (hGPR17L-F43L; [2]) was 1.6 nM, the “fold less potent for inhibition of forskolin-stimulated cAMP relative to hGPR17L-WT” value (hGPR17L-G136S) was “approximately 400 fold” and the “cAMP Efficacy (% inhibition)” value (hGPR17L-G136S; HEK293, 3 μM forskolin) was 39 ± 2.3 % inhibition. The “cAMP 10 μM MDL +3 μM FSK (% of FSK)” value (hGPR17L-G136S; HEK293, 10 μM MDL29,951) was 65 ± 5.0 % of FSK, the “cAMP 100 μM MDL +3 μM FSK (% of FSK)” value (hGPR17L-G136S; HEK293, 100 μM MDL29,951) was 60 ± 3.4 % of FSK and the “cAMP pIC50 ± SEM” value (hGPR17L-G136S; [1]) was 5.89 ± 0.30. For the same compound, the IC50 (hGPR17L-G136S; [2]) was 1300 nM, the “cAMP Efficacy (% inhibition)” value (hGPR17L-G354V; HEK293, 3 μM forskolin) was 42 ± 6.7 % inhibition and the “cAMP 10 μM MDL +3 μM FSK (% of FSK)” value (hGPR17L-G354V; HEK293, 10 μM MDL29,951) was 91 ± 13 % of FSK. The “cAMP 100 μM MDL +3 μM FSK (% of FSK)” value (hGPR17L-G354V; HEK293, 100 μM MDL29,951) was 113 ± 10 % of FSK, the “cAMP pIC50 ± SEM” value (hGPR17L-G354V; [1]) was 8.34 ± 0.25 and the IC50 (hGPR17L-G354V; [2]) was 4.6 nM. For the same compound, the “cAMP Efficacy (% inhibition)” value (hGPR17L-R248Q; HEK293, 3 μM forskolin) was 41 ± 3.9 % inhibition, the “cAMP 10 μM MDL +3 μM FSK (% of FSK)” value (hGPR17L-R248Q; HEK293, 10 μM MDL29,951) was 84 ± 5.5 % of FSK and the “cAMP 100 μM MDL +3 μM FSK (% of FSK)” value (hGPR17L-R248Q; HEK293, 100 μM MDL29,951) was 98 ± 6.7 % of FSK. For the same compound, the “cAMP pIC50 ± SEM” value (hGPR17L-R248Q; [1]) was 8.73 ± 2.2 and the IC50 (hGPR17L-R248Q; [2]) was 1.9 nM.
